This is an account of results in US20230203040A1, “CRYSTALLINE FORMS OF A SULFONAMIDE COMPOUND AND PROCESSES FOR PREPARING THE SAME” (CRYSTAL PHARMATECH CO., LTD., priority 2020, published 2023).

What all share (type): physicochemical
The nature of series [1]: Compressibility of crystalline forms (manual tableting, hardness and tensile strength). The following applies: for hardness (radial crushing force) / Tensile strength: tablet pressed at 10 KN; for hardness (radial crushing force): 24 hours in dryer; for Tensile strength: T=2H/πDL. The procedure: A manual tableting machine was used to perform the tableting. […] 10 KN pressure was applied to suppress into cylindrical tablets, which were placed in a dryer for 24 hours. After the complete elastic restoration, the tablets were tested with a tablet hardness meter for its radial crushing force (hardness, H). Diameter (D) and thickness (L) of the tablets were measured with a Vernier caliper, and the tensile strength of the powder under different hardness was calculated using the formula T=2H/πDL. Under a certain pressure, the higher the tensile strength was, the better the compressibility was.

Series [2] can be described thus: Solubility of crystalline forms in FaSSIF, FeSSIF and pure water (saturated solutions, HPLC). The conditions noted are these: 37° C.; for Solubility in water: pure water. The procedure: The sample contents in saturated solutions were determined by high performance liquid chromatography (HPLC).
Series [3] in a line: Hygroscopicity by dynamic vapor sorption (DVS). The conditions noted are these: 25° C.; for Weight gain at 80% RH: 80% relative humidity; for Weight gain at 95% RH: 95% relative humidity. The procedure: The dynamic vapor sorption diagrams of the present invention were collected on Intrinsic-type and Intrinsic Plus-type dynamic vapor sorption instruments of SMS company. The process parameters of the dynamic vapor sorption test of the present invention were as follows: Temperature: 25° C. Protection gas and its flow rate: N2, 200 mL/minute dm/dt: 0.002%/minute Minimum dm/dt equilibration time: 10 minutes Maximum Equilibration Time: 180 minutes Relative humidity range: 0% RH-95% RH-0% RH Relative humidity gradient: 10% (0% RH-90% RH-0% RH), 5% (90% RH-95% RH and 95% RH-90% RH). Each about 10 mg of Crystalline Form of the present invention and Crystalline Form A of WO2020/008391A was weighed for dynamic vapor sorption (DVS) test, and then sampled to measure XRPD. The experimental results were shown in Table 21, and the dynamic vapor sorption diagrams of Crystalline Forms A and E were shown in FIGS. 22-23 respectively.

Series [4] is described as follows: Intrinsic dissolution rate. The conditions noted are these: pH 6.8 Phosphate Buffer, 37° C., paddle 100 rpm, sheet 0.5 cm^2. Here is the method: The intrinsic dissolution rate data of the present invention were collected on an Agilent 708DS-type dissolution apparatus of the Agilent company. The intrinsic dissolution test conditions were as follows.
An intact pressed sheet was transferred to the dissolution apparatus for testing the intrinsic dissolution rate, and the slope was calculated according to the measurement points between 10 and 30 minutes, expressed in mg/mL, and the intrinsic dissolution rate (IDR) was further calculated according to the slope, expressed in mg/min/cm^2. The dissolution rate of Crystalline Form E of the present invention was faster than that of Crystalline Form A of the prior art.

Converted amounts (≈) assume the structure as drawn.

Take `CCCS(=O)(=O)N[C@H]1C[C@@H](N(C)c2ncnc3[nH]ccc23)C1` [Crystalline Form A, reference compound]: in series [1], the “hardness (radial crushing force)” value turned out to be 17.01 N and the Tensile strength is 1.805 MPa. For the same compound, in series [2] (equilibrated 1 hour), the “Solubility in FaSSIF” value was found to be 72.3 µg/mL (≈ 224 µM), the “Solubility in FeSSIF” value amounted to 9.4 µg/mL (≈ 29.1 µM) and the Solubility in water is 64.3 µg/mL (≈ 199 µM). Besides, in series [2] (equilibrated 2 hours), the “Solubility in FaSSIF” value stood at 78 µg/mL (≈ 241 µM), the “Solubility in FeSSIF” value was 9.4 µg/mL (≈ 29.1 µM) and the Solubility in water worked out at 74.7 µg/mL (≈ 231 µM). Besides, in series [2] (equilibrated 4 hours), the “Solubility in FaSSIF” value worked out at 76.1 µg/mL (≈ 235 µM), the “Solubility in FeSSIF” value is 9.6 µg/mL (≈ 29.7 µM) and the Solubility in water turned out to be 72.3 µg/mL (≈ 224 µM). Besides, in series [3], the “Weight gain at 80% RH” value is 0.09% and the “Weight gain at 95% RH” value amounted to 0.27%.

Consider `CCCS(=O)(=O)N[C@H]1C[C@@H](N(C)c2ncnc3[nH]ccc23)C1` [Crystalline Form F], for which the “Solubility in FaSSIF” value in series [2] (equilibrated 1 hour) amounted to 189 µg/mL (≈ 584 µM); in series [2] (equilibrated 2 hours), 203.5 µg/mL (≈ 629 µM); in series [2] (equilibrated 4 hours), 214.2 µg/mL (≈ 662 µM). Also, the “Solubility in FeSSIF” value in series [2] (equilibrated 1 hour) was 51.6 µg/mL (≈ 160 µM); in series [2] (equilibrated 2 hours), 54.9 µg/mL (≈ 170 µM); in series [2] (equilibrated 4 hours), 59.2 µg/mL (≈ 183 µM). In addition, the Solubility in water in series [2] (equilibrated 1 hour) was 179.6 µg/mL (≈ 555 µM); in series [2] (equilibrated 2 hours), 189.2 µg/mL (≈ 585 µM); in series [2] (equilibrated 4 hours), 203 µg/mL (≈ 628 µM).

With `CCCS(=O)(=O)N[C@H]1C[C@@H](N(C)c2ncnc3[nH]ccc23)C1` [Crystalline Form E], the “dissolution rate (intrinsic) compared with Crystalline Form A” value in series [4] was “faster”. Also, the “tensile strength and compressibility compared with Crystalline Form A” value in series [1] (10 KN) was “higher tensile strength and better compressibility”. In addition, in series [1], the “hardness (radial crushing force)” value stood at 17.20 N and the Tensile strength amounted to 2.607 MPa. In addition, the “solubility in FaSSIF, FeSSIF and pure water compared with Crystalline Form A” value in series [2] is recorded as “higher”. Besides, in series [2] (equilibrated 1 hour), the “Solubility in FaSSIF” value turned out to be 153.8 µg/mL (≈ 476 µM), the “Solubility in FeSSIF” value was found to be 38.4 µg/mL (≈ 119 µM) and the Solubility in water is 114.7 µg/mL (≈ 355 µM). Moreover, in series [2] (equilibrated 2 hours), the “Solubility in FaSSIF” value was 164.5 µg/mL (≈ 509 µM), the “Solubility in FeSSIF” value came to 39.2 µg/mL (≈ 121 µM) and the Solubility in water worked out at 138.6 µg/mL (≈ 429 µM). In series [2] (equilibrated 4 hours), the “Solubility in FaSSIF” value came out at 169.4 µg/mL (≈ 524 µM), the “Solubility in FeSSIF” value turned out to be 44.1 µg/mL (≈ 136 µM) and the Solubility in water came to 156.2 µg/mL (≈ 483 µM). Also, in series [3], the “Weight gain at 80% RH” value stood at 0.11% and the “Weight gain at 95% RH” value came to 0.19%.
